The values that follow come from a melting point compilation (Tetko et al.).

In general, melting point refers to the temperature, or range, at which the solid turns liquid. In turn, `Cc1ccc(OCCCC(=O)O)cc1` displayed a melting point of 83 to 85 °C. As for `Nc1cccc(S(=O)(=O)NCc2ccco2)c1`, the figure is 83 to 85 °C; as for `COC(=O)c1cc(C)c(C)c(S(=O)(=O)Cl)c1`, 61 to 63 °C; as for `CC(C)(C)NS(=O)(=O)c1cc(C(=O)O)ccc1F`, 182 to 184 °C.

The molecule `N#CCC(=O)N(CC(F)(F)F)C1CC1` gave a melting point of 69 to 71 °C.

`O=C(O)c1cc(Cl)c([N+](=O)[O-])[nH]1` gave a melting point of 236 to 238 °C. The result for `COc1ccccc1CC(=O)NN` reads 112 to 114 °C; that for `CNC(=O)c1cccc(Cl)n1`, 42 to 44 °C; that for `O=C(O)c1cc2c(c(S(=O)(=O)Cl)c1)CCCC2`, 193 to 195 °C. As to `COc1cc(C=O)ccc1Oc1ccc(S(=O)(=O)N2CCCCC2)cc1[N+](=O)[O-]`, the melting point was in the range of 173 to 175 °C. `CS(=O)(=O)c1ccc(S)cc1`: the melting point fell in the range of 63 to 65 °C.

For `Cc1cc2nc(C)c(CCC(=O)O)c(C)n2n1`, the melting point was 260 to 262 °C.

Molecule `FC(F)(F)c1ccc2sc(S)nc2c1` returned a melting point of 221 to 223 °C. As for `O=C(CCl)N1CCOC2CCCCC21` (stereo unspecified), the figure is 67 to 69 °C. As for `O=Cc1cc(Br)c2c(c1)OCCCO2`, the figure is 73 to 75 °C; as for `CC(Sc1ncn[nH]1)C(=O)O` (stereo unspecified), 173 to 175 °C. For `NC1(C(=O)O)CCOC1` (stereo unspecified), the melting point was 244 to 246 °C. The result for `COc1ccc(S(N)(=O)=O)cc1NC(=O)CCl` reads 169 to 171 °C. As for `COc1ccccc1NC1=NCCCS1`, the figure is 83 to 85 °C; as for `NCc1nc(-c2ccsc2)no1`, 134 to 136 °C; as for `CS(=O)(=O)NCc1cccc(Br)c1`, 66 to 68 °C. In turn, `CC(C)C(Br)C(=O)N1CCOCC1` (stereo unspecified) yielded a melting point of 71 to 73 °C. The result for `O=C(O)c1ccc(S(=O)(=O)CC(F)F)cc1` reads 212 to 214 °C; that for `Sc1nnc(Nc2cccc(Cl)c2)s1`, 210 to 212 °C. As for `N#CCSc1ccc(C(=O)O)cc1`, the figure is 269 to 271 °C; as for `O=C(O)C1COc2ccc(Cl)cc2C1` (stereo unspecified), 85 to 87 °C.

For `CCOC(=O)CNc1ccc(F)cc1`, the melting point lay within 73 to 77 °C. The result for `O=C(O)C1CCN(c2ccc(S(=O)(=O)N3CCOCC3)cc2[N+](=O)[O-])CC1` reads 225 to 227 °C.

Turning to `COc1ccc(C=C2CCCc3c2nc2ccccc2c3C(=O)O)cc1OC`, the melting point is 110 to 114 °C. With `O=C(O)c1ccccc1C(=O)c1ccc2c(c1)OCCO2`, the melting point was in the range of 168 to 170 °C. The result for `O=[N+]([O-])c1ccc2c(c1)S(=O)(=O)C=C2` reads 179 to 181 °C.

For the molecule `O=C(O)c1cc(Cl)ccc1Sc1ccc(Cl)cc1`, the melting point is 158 to 160 °C. `O=C(O)c1nnc(S)[nH]c1=O` returned a melting point of 229 to 231 °C. On to `COC(=O)C(C(=O)OC)c1ccc(C(F)(F)F)cc1[N+](=O)[O-]`, for which the melting point is 63 to 65 °C. The result for `CN(Cc1ccccc1N)C(=O)c1cc2ccccc2o1` reads 109 to 111 °C; that for `O=C(O)c1cc(S(=O)(=O)Cl)c(Br)cc1F`, 147 to 149 °C.

`Nc1cccc(N2CCCS2(=O)=O)c1`: the melting point fell in the range of 85 to 87 °C.

`Cc1ncc(C=CC(=O)O)s1` came in with a melting point of 194 to 196 °C. As for `O=C(O)C1CCN(S(=O)(=O)c2ccc(F)c(Cl)c2)CC1`, the figure is 190 to 192 °C; as for `O=C(O)Cc1ccc2c(c1)CCO2`, 102 to 104 °C. Consider `O=C(O)c1ccc(O)cc1F`, for which the melting point was in the range of 202 to 204 °C.

On to `Clc1nnc(-c2ccccn2)s1`, for which the melting point fell in the range of 105 to 107 °C.

For `Nc1cc(S(=O)(=O)N2CCOCC2)ccc1N1CCOCC1`, the melting point lay within 210 to 212 °C. As for `O=C(O)CNC(=O)c1ccc2ccccc2c1`, the figure is 171 to 175 °C; as for `Cc1cc(-c2csc(N)n2)c(C)o1`, 89 to 91 °C; as for `Cn1ccnc1C(N)c1ccccc1F` (stereo unspecified), 58 to 60 °C. The result for `O=C1CN(Cc2ccnc(Cl)c2)CCN1` reads 143 to 145 °C; that for `COc1cc(S(=O)(=O)Cl)ccc1Br`, 65 to 67 °C; that for `CC1CN(C(=O)CC#N)CC(C)O1` (stereo unspecified), 125 to 127 °C. As for `Cc1occc1-c1cc(N)n(CCO)n1`, the melting point is 128 to 130 °C. The result for `CC(C)OC(=O)NNC(=O)CCl` reads 100 to 102 °C; that for `COc1cccc(/C=C/c2cc(C(=O)O)c3cc(Br)ccc3n2)c1`, 285 to 287 °C. On to `O=C(O)CCCN1CCOC1=O`, for which the melting point is 73 to 75 °C. `CCOC(=O)c1ccn(C)c(=O)c1` yielded a melting point of 91 to 93 °C.

For `N#CCCn1cc(C(=O)O)c(-c2cccc3ccccc23)n1`, the melting point lay within 179 to 181 °C. The result for `O=C(O)C=CC1=CCCC1` reads 147 to 149 °C. `O=[N+]([O-])c1ccc(C2CN=C(Nc3ccccc3)S2)cc1` (stereo unspecified) had a melting point of 136 to 138 °C.

On to `Cc1nc2c(cnn2C(C)C)c(=O)[nH]1`, for which the melting point was 174 to 176 °C. The molecule `COc1cc(C#N)ccc1OCCCC(=O)O` showed a melting point of 146 to 148 °C. `O=C(CCCl)NCC(=O)c1ccccc1` displayed a melting point of 120 to 122 °C. The result for `NC(=O)c1ccc(I)cc1` reads 216 to 218 °C; that for `COCCc1noc(-c2cc(Cl)ccc2N)n1`, 93 to 95 °C; that for `CC(C)c1nnc(CC#N)[nH]1`, 148 to 150 °C. Regarding `CNC(C)c1sc(-c2ccc(C)cc2)nc1C` (stereo unspecified), the melting point fell in the range of 77 to 79 °C. The result for `COc1ccc2c(CC(=O)O)cc(=O)oc2c1` reads 183 to 187 °C; that for `CC(=O)c1nnn(-c2ccc(Cl)cc2)c1C`, 113 to 115 °C.

Molecule `O=[N+]([O-])c1sccc1Br` displayed a melting point of 80 to 82 °C. As for `CC(C)(C)OC(=O)N1C(=O)NC(C)(C)C1=O`, the figure is 152 to 154 °C. The result for `O=Cc1cnc(Cl)nc1` reads 118 to 120 °C; that for `O=C(NO)C1CCCC1`, 107 to 109 °C; that for `O=C(O)CNC(=O)CNS(=O)(=O)Cc1ccc(F)cc1`, 198 to 200 °C. The result for `Nc1c(Br)ccc(Br)c1C(=O)O` reads 145 to 147 °C. Regarding `CCC(C)(C)NS(=O)(=O)c1ccc(Cl)nc1`, the melting point lay in the range of 86 to 88 °C.

As to `COc1cc2ncn(CCC(=O)O)c(=O)c2cc1OC`, the melting point lay in the range of 95 to 97 °C. The result for `NC(=O)CC(F)(F)F` reads 101 to 103 °C; that for `COc1ccc(NS(=O)(=O)c2ccc(C(C)=O)cc2)cc1`, 121 to 123 °C.

For `COc1ccc2sc(C(=O)O)c(C)c2c1`, the melting point was in the range of 254 to 256 °C. Regarding `CCCOc1ccc(C(=O)O)cc1OC`, the melting point lay in the range of 182 to 184 °C.

In turn, `NNC(=O)Cn1ccc2ccccc21` gave a melting point of 176 to 178 °C. As for `Cc1nn(C)c(C)c1CCC(=O)O`, the figure is 137 to 139 °C; as for `C/C(Cn1nc(C)cc1C)=N\O`, 114 to 116 °C. As for `CSc1nc2cnccc2o1`, the figure is 85 to 87 °C; as for `CN(C)C(=O)Sc1cnc2c(c1)c(=O)n(C)c(=O)n2C`, 170 to 172 °C; as for `OC(CN1CCNCC1)c1ccccc1` (stereo unspecified), 67 to 69 °C.

In turn, `COc1ccc(-c2cc(N)n(-c3cccc(C)c3)n2)cc1` showed a melting point of 125 to 127 °C. Regarding `NC1CCCCC1Nc1cnccn1` (stereo unspecified), the melting point fell in the range of 59 to 61 °C.
